Experimental data reported in patent US11786534B2 (TAIHO PHARMACEUTICAL CO., LTD., priority 2019, dated 2023).

target: Ba/F3-EGFR (L858R/T790M/C797S) (Homo sapiens, UniProt P00533, T790M/C797S/L858R, cells depend on it); experiment: Growth inhibition of cell line expressing EGFR (L858R/T790M/C797S); type: cell-based, mouse; details: Test Example 2, Table 7; culture 3 days, CellTiter-Glo; read-out: BaF3_EGFR (L858R/T790M/C797S) IC50 value
Text: Test for inhibitory activity against the growth of cell lines expressing wild-type and mutated EGFRs (in vitro)
(1) Mouse cell line Ba/F3-EGFR (d746-750/T790M/C797S) transfected with and stably expressing EGFR (d746-750/T790M/C797S), mouse cell Ba/F3-EGFR (L858R/T790M/C797S) transfected with and stably expressing EGFR (L858R/T790M/C797S), and mouse cell line Ba/F3-EGFR (WT) transfected with and stably expressing wild-type EGFR were each suspended in RPMI-1640 cell culture medium (RPMI-1640, 10% FBS, 100 unit/ml penicillin, 0.1 mg/ml streptomycin). In the case of the mouse cell line Ba/F3-EGFR (WT), RPMI-1640 cell culture medium containing EGF at a final concentration of 50 ng/ml was used to suspend this cell line. It should be noted that the mouse cell line Ba/F3-EGFR (d746-750/T790M/C797S) transfected with and stably expressing EGFR (d746-750/T790M/C797S), the mouse cell line Ba/F3-EGFR (L858R/T790M/C797S) transfected with and stably expressing EGFR (L858R/T790M/C797S) and the mouse cell line Ba/F3-EGFR (WT) transfected with and stably expressing wild-type EGFR were prepared by using nucleotide sequences encoding the proteins of SEQ ID NOs: 1 and 2 in accordance with Test Example 1 in WO2018/079310, These cell suspensions were seeded in wells of 96-well flat -bottomed plates. The compounds of the present invention were dissolved in DMSO, and serial dilutions of these test compounds were prepared with DMSO (1000-fold of the final concentration). Each test compound solution in DMSO or DMSO alone was diluted with RPMI-1640 cell culture medium for each cell line, and this dilution was added to wells of the cell culture plate such that the final concentration of DMSO was 0.1%, followed by culture at 37° C. for 3 days in a 5% carbon dioxide gas-containing incubator. Before and after addition of each test compound solution in DMSO, the number of cells was counted using the CellTiter-Glo® system (Promega) on the basis of the protocol recommended by Promega.
In each cell line, the rate of cell growth inhibition was calculated according to the equation shown below in wells to which each test compound was added at different concentrations. Moreover, the inhibition rate at each concentration was plotted for each test compound, and the concentration of each test compound required to give 50% cell survival rate, i.e., IC50 (nM) was determined by curve fitting software XLfit (IDBS).
Cell survival rate (%)=T/C×100
T: emission intensity in a well cultured for 3 days after addition of a test compound solution
C: emission intensity in a well cultured for 3 days after addition of DMSO
In accordance with the same procedures as shown in Test Example 2, the compounds of the present invention were tested for their inhibitory activity against the growth of the cell hoes expressing wild-type and mutated EGFRs.

Ba/F3-EGFR (L858R/T790M/C797S), sequence (P00533 whole entry T790M/C797S/L858R): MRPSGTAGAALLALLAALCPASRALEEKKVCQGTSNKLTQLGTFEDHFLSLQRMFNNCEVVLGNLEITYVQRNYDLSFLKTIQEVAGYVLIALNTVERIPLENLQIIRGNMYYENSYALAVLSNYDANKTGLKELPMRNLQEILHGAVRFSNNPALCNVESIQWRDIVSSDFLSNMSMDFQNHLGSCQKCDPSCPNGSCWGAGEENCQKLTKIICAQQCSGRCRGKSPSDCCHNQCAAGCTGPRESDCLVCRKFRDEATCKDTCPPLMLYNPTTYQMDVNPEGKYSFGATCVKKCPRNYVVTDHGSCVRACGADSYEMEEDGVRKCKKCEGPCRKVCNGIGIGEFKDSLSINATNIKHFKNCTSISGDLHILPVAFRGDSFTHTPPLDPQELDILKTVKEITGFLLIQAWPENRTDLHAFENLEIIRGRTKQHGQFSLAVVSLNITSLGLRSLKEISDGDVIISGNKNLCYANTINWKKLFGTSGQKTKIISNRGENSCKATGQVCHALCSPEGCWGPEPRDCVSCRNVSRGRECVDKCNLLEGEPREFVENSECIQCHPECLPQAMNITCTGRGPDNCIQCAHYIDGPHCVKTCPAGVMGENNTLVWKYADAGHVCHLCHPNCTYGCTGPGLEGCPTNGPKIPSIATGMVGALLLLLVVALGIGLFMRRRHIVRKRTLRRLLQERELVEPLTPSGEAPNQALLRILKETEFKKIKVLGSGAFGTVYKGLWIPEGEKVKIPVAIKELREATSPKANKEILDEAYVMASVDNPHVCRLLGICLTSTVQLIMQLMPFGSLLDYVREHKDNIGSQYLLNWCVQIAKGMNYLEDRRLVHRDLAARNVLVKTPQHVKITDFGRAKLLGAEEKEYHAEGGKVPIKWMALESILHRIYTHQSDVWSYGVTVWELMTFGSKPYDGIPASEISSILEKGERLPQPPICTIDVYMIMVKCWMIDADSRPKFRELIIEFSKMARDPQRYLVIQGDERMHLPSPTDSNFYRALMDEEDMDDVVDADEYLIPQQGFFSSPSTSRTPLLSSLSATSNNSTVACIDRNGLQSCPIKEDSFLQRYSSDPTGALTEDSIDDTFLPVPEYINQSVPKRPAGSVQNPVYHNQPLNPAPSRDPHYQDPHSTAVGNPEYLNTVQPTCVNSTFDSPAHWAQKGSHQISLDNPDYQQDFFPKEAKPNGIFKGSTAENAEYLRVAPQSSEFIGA

SMILES	GI50 [nM]
C#Cc1c(-c2cnc3ccccc3c2)c2c(N)ncnc2n1C12CCC(NC(=O)c3ccncc3)(CC1)C2 [Example 43]	417
C#Cc1c(-c2cnc3ccccc3c2)c2c(N)ncnc2n1C12CCC(NC(=O)c3cccnc3)(CC1)C2 [Example 45]	305
C#Cc1c(-c2cnc3ccccc3c2)c2c(N)ncnc2n1C12CCC(NC(=O)c3ncco3)(CC1)C2 [Example 46]	204
C#Cc1c(-c2cnc3ccccc3c2)c2c(N)ncnc2n1C12CCC(NC(=O)c3cnccn3)(CC1)C2 [Example 48]	223
C#Cc1c(-c2cnc3ccccc3c2)c2c(N)ncnc2n1C12CCC(NC(=O)c3cccnn3)(CC1)C2 [Example 49]	290

same assay, conditions: Test Example 4, Table 13; same procedures as Test Example 2; read-out: BaF3_EGFR (L858R/T790M/C797S) IC50 value

SMILES	GI50 [nM]
C#Cc1c(-c2cnc3ccccc3c2)c2c(N)ncnc2n1C12CCC(NC(=O)c3ccco3)(CC1)C2 [Example 41]	843
C#Cc1c(-c2cnc3ccccc3c2)c2c(N)ncnc2n1C12CCC(NC(=O)c3ccno3)(CC1)C2 [Example 44]	268
C#Cc1c(-c2cnc3ccccc3c2)c2c(N)ncnc2n1C12CCC(NC(=O)c3nccs3)(CC1)C2 [Example 53]	978

target: T1, human EGFR (WT) (Homo sapiens, UniProt P00533); experiment: Inhibitory activity against EGFR (WT) kinase; type: biochemical; details: Test Example 1, Table 6; ATP 1.5 μM
T1 construct: purchased Carna Biosciences Inc., Japan
T1 sequence (P00533 25-1210): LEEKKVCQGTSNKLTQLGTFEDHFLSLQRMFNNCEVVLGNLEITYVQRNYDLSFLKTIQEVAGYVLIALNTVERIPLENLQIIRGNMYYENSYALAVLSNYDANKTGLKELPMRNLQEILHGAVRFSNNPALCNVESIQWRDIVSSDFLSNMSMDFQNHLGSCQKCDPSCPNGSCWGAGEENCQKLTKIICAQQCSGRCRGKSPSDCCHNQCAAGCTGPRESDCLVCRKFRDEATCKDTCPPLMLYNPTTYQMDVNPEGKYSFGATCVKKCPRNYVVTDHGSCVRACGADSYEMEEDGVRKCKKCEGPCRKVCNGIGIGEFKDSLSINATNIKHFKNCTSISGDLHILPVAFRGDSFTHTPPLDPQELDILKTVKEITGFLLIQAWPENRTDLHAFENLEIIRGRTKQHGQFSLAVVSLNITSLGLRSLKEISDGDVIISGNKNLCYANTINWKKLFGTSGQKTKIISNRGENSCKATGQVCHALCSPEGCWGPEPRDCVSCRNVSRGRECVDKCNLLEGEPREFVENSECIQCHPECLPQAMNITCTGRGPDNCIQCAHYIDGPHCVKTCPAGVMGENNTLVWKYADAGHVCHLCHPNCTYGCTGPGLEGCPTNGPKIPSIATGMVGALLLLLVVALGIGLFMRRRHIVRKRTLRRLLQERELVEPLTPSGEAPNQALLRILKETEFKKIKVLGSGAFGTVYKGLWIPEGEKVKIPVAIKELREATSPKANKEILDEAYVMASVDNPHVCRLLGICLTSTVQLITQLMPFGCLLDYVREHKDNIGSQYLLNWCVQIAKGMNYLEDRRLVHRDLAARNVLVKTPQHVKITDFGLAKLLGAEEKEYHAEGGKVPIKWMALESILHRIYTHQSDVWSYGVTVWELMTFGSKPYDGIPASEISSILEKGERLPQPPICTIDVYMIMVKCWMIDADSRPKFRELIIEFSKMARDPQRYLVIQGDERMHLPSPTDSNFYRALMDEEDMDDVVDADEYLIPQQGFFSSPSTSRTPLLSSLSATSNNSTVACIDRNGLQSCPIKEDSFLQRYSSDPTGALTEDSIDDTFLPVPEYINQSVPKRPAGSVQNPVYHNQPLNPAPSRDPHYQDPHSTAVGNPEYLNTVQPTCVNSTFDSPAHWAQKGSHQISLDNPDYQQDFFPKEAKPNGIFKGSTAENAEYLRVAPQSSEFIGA
In short: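 Purified recombinant human wild-type EGFR kinase, with ATP at 1.5 μM final. Compound inhibition of kinase activity read out and fitted to give IC50 (nM).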

SMILES	IC50 [nM]
C#Cc1c(-c2cnc3ccccc3c2)c2c(N)ncnc2n1C12CCC(NC(=O)c3ccco3)(CC1)C2 [Example 41]	2.1
C#Cc1c(-c2cnc3ccccc3c2)c2c(N)ncnc2n1C12CCC(NC(=O)c3ccncc3)(CC1)C2 [Example 43]	1.7
C#Cc1c(-c2cnc3ccccc3c2)c2c(N)ncnc2n1C12CCC(NC(=O)c3ccno3)(CC1)C2 [Example 44]	0.8
C#Cc1c(-c2cnc3ccccc3c2)c2c(N)ncnc2n1C12CCC(NC(=O)c3cccnc3)(CC1)C2 [Example 45]	1.9
C#Cc1c(-c2cnc3ccccc3c2)c2c(N)ncnc2n1C12CCC(NC(=O)c3ncco3)(CC1)C2 [Example 46]	0.79
C#Cc1c(-c2cnc3ccccc3c2)c2c(N)ncnc2n1C12CCC(NC(=O)c3cnccn3)(CC1)C2 [Example 48]	0.75
C#Cc1c(-c2cnc3ccccc3c2)c2c(N)ncnc2n1C12CCC(NC(=O)c3cccnn3)(CC1)C2 [Example 49]	0.86
C#Cc1c(-c2cnc3ccccc3c2)c2c(N)ncnc2n1C12CCC(NC(=O)c3nccs3)(CC1)C2 [Example 53]	1.9

target: T2, human EGFR (L858R/C797S) (Homo sapiens, UniProt P00533, C797S/L858R); experiment: Inhibitory activity against EGFR (L858R/C797S) kinase; type: biochemical; details: Test Example 1, Table 5; ATP 4 μM, 90 minutes
T2 construct: purchased SignalChem
T2 sequence (P00533 25-1210 C797S/L858R): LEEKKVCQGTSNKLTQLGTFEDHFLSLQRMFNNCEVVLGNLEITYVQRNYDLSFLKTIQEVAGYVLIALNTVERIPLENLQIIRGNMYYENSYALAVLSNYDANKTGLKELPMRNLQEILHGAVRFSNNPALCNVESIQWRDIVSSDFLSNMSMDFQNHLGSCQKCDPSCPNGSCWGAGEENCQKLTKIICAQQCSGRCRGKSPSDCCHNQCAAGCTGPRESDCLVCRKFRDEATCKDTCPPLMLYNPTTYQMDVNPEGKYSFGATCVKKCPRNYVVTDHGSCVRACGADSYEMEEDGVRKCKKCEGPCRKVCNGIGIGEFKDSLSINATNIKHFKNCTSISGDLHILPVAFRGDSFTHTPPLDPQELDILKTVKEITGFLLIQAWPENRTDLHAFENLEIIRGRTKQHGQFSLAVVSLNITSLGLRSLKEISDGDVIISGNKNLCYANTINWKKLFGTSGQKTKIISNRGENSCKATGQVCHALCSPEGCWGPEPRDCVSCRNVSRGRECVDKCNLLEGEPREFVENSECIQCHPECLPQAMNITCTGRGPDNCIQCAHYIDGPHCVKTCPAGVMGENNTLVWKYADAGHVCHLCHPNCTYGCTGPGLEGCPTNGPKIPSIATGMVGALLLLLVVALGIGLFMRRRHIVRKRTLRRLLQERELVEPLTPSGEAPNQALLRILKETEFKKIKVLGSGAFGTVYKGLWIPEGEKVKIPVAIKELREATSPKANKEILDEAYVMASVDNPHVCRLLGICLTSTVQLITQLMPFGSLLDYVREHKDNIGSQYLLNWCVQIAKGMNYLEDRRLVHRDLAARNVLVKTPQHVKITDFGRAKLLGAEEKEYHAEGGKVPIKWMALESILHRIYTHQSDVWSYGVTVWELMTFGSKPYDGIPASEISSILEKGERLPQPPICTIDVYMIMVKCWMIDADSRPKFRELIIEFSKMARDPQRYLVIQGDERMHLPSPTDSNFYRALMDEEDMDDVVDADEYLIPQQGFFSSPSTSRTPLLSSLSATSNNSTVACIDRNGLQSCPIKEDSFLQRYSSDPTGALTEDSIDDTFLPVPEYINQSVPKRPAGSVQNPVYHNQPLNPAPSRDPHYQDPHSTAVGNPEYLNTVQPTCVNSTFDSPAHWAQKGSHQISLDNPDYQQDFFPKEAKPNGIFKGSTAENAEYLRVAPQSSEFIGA
In short: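 Purified recombinant human EGFR (C797S/L858R) kinase, final ATP 4 μM, 90-minute kinase reaction, otherwise per the EGFR (d746-750/C797S) protocol. IC50 (nM) determined from inhibition data.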

SMILES	IC50 [nM]
C#Cc1c(-c2cnc3ccccc3c2)c2c(N)ncnc2n1C12CCC(NC(=O)c3ccco3)(CC1)C2 [Example 41]	1.9
C#Cc1c(-c2cnc3ccccc3c2)c2c(N)ncnc2n1C12CCC(NC(=O)c3ccncc3)(CC1)C2 [Example 43]	0.49
C#Cc1c(-c2cnc3ccccc3c2)c2c(N)ncnc2n1C12CCC(NC(=O)c3ccno3)(CC1)C2 [Example 44]	0.94
C#Cc1c(-c2cnc3ccccc3c2)c2c(N)ncnc2n1C12CCC(NC(=O)c3cccnc3)(CC1)C2 [Example 45]	0.53
C#Cc1c(-c2cnc3ccccc3c2)c2c(N)ncnc2n1C12CCC(NC(=O)c3ncco3)(CC1)C2 [Example 46]	0.43
C#Cc1c(-c2cnc3ccccc3c2)c2c(N)ncnc2n1C12CCC(NC(=O)c3cnccn3)(CC1)C2 [Example 48]	0.6
C#Cc1c(-c2cnc3ccccc3c2)c2c(N)ncnc2n1C12CCC(NC(=O)c3cccnn3)(CC1)C2 [Example 49]	0.63
C#Cc1c(-c2cnc3ccccc3c2)c2c(N)ncnc2n1C12CCC(NC(=O)c3nccs3)(CC1)C2 [Example 53]	1.2
